Reference: the supplement of paper PMC4862054

Assays:
CAL-51 [1] = details: 72 h
How it was run: (§1)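 In this assay, breast cancer cell lines spent 72 h with compound at 5 concentrations in 10-fold steps over a compound-specific 10,000-fold range. The first readout was cell death by CellTox Green fluorescence, and the second was viability by CellTiter-Glo luminescence, each normalised per plate to 0.1 % DMSO and a positive kill control. EC50 came from the dose-response curves, censored at the top concentration.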

BT-474 [2] = experiment: normalised viability (% of control), CellTiter-Blue; higher = more viable cells (about 100 = DMSO control); details: incubation time: 72 h
How it was run: (§2)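 Plates were quality-checked by Z'-factor and normalised to vehicle (100) and a positive kill control (0). The underlying assay incubated breast cancer cell lines for 72 h on 384-well plates with compound, then added 2.5 µl CellTiter-Blue for 2 h at 37 °C and read at 560/590 nm. The value is normalised viability at a single listed concentration of the series.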

CAL-120 = experiment: as above; details: incubation time: 72 h
How it was run: as §2

CAL-51 [3] = experiment: as above; details: incubation time: 72 h
How it was run: as §2

CAL-85-1 [4] = experiment: as above; details: incubation time: 72 h
How it was run: as §2

HCC1599 [5] = experiment: as above; details: incubation time: 72 h
How it was run: as §2

HCC1937 [6] = experiment: as above; details: incubation time: 72 h
How it was run: as §2

Hs578T = experiment: as above; details: incubation time: 72 h
How it was run: as §2

MDA-MB-436 [7] = experiment: as above; details: incubation time: 72 h
How it was run: as §2

MDA-MB-453 [8] = experiment: as above; details: incubation time: 72 h
How it was run: as §2

MDA-MB-468 [9] = experiment: as above; details: incubation time: 72 h
How it was run: as §2

BT-474 [10] = experiment: normalised viability (% of control), CellTiter-Blue; higher = more viable cells (about 100 = DMSO control); details: incubation time: 72 h; remark: listed apart in the source
Procedure: (§3)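 DSRT, CellTiter-Blue viability, 72 h incubation. Signal is normalised to DMSO and benzethonium chloride controls. Value is the normalised response at dose 3.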

CAL-51 [11] = experiment: as above; details: incubation time: 72 h; remark: listed apart in the source
Procedure: as §3

DU-4475 [12] = experiment: as above; details: incubation time: 72 h
Procedure: as §3

HCC1143 = experiment: as above; details: incubation time: 72 h
Procedure: as §3

HCC1599 [13] = experiment: as above; details: incubation time: 72 h; remark: listed apart in the source
Procedure: as §3

HCC1937 [14] = experiment: as above; details: incubation time: 72 h; remark: listed apart in the source
Procedure: as §3

HDQ-P1 [15] = experiment: as above; details: incubation time: 72 h
Procedure: as §3

MDA-MB-231 [16] = experiment: as above; details: incubation time: 72 h
Procedure: as §3

MDA-MB-468 [17] = experiment: as above; details: incubation time: 72 h; remark: listed apart in the source
Procedure: as §3

CAL-148 = experiment: as above; details: incubation time: 72 h
Procedure: (§4)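 DSRT, CellTiter-Blue viability, 72 h incubation. Signal is normalised to DMSO and benzethonium chloride controls. Value is the normalised response at dose 6.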

CAL-51 [18] = experiment: as above; details: incubation time: 72 h; remark: listed apart in the source
Procedure: as §4

CAL-85-1 [19] = experiment: as above; details: incubation time: 72 h; remark: listed apart in the source
Procedure: as §4

DU-4475 [20] = experiment: as above; details: incubation time: 72 h; remark: listed apart in the source
Procedure: as §4

HDQ-P1 [21] = experiment: as above; details: incubation time: 72 h; remark: listed apart in the source
Procedure: as §4

MDA-MB-453 [22] = experiment: as above; details: incubation time: 72 h; remark: listed apart in the source
Procedure: as §4

BT-474 [23] = details: 72 h
How it was run: as §1

BT-549 = details: 72 h
How it was run: as §1

CAL-85-1 [24] = details: 72 h
How it was run: as §1

HCC1937 [25] = details: 72 h
How it was run: as §1

MCF-10A = details: 72 h
How it was run: as §1

MDA-MB-231 [26] = details: 72 h
How it was run: as §1

MDA-MB-436 [27] = details: 72 h
How it was run: as §1

MDA-MB-453 [28] = details: 72 h
How it was run: as §1

MDA-MB-468 [29] = details: 72 h
How it was run: as §1

SK-BR-3 = details: 72 h
How it was run: as §1

Question: Which “EC50, CellTiter-Glo” value (CAL-51 [1]) does the source give for `C[C@]12CC[C@H](O)CC1=CC[C@@H]1[C@@H]2CC[C@]2(C)C(c3cccnc3)=CC[C@@H]12` [Abiraterone] here?
Answer: 0.0433 µM

Question: What about the normalised viability (BT-474 [2]; 5000 nM) of the same compound?
Answer: 98.8%

Question: And the normalised viability (CAL-120; 5000 nM)?
Answer: 92.1%

Question: And the normalised viability (CAL-51 [3]; 50 nM)?
Answer: 104%

Question: What about the normalised viability (CAL-85-1 [4]; 50 nM) of the same compound?
Answer: 96.4%

Question: What about the normalised viability (HCC1599 [5]; 5000 nM) of the same compound?
Answer: 120%

Question: And the normalised viability (HCC1937 [6]; 5000 nM)?
Answer: 101%

Question: What about the normalised viability (Hs578T; 5000 nM) of the same compound?
Answer: 110%

Question: And the normalised viability (MDA-MB-436 [7]; 5000 nM)?
Answer: 107%

Question: What about the normalised viability (MDA-MB-453 [8]; 50 nM) of the same compound?
Answer: 102%

Question: What about the normalised viability (MDA-MB-468 [9]; 5000 nM) of the same compound?
Answer: 111%

Question: What about the normalised viability (BT-474 [10]; 50 nM) of the same compound?
Answer: 112%

Question: And the normalised viability (CAL-51 [11]; 5 nM)?
Answer: 106%

Question: And the normalised viability (DU-4475 [12]; 5 nM)?
Answer: 94%

Question: What about the normalised viability (HCC1143; 50 nM) of the same compound?
Answer: 75.2%

Question: What about the normalised viability (HCC1599 [13]; 50 nM) of the same compound?
Answer: 102%

Question: What about the normalised viability (HCC1937 [14]; 50 nM) of the same compound?
Answer: 98.9%

Question: What about the normalised viability (HDQ-P1 [15]; 5 nM) of the same compound?
Answer: 109%

Question: And the normalised viability (MDA-MB-231 [16]; 50 nM)?
Answer: 95.6%

Question: And the normalised viability (MDA-MB-468 [17]; 50 nM)?
Answer: 107%

Question: And the normalised viability (CAL-148; 150 nM)?
Answer: 93.8%

Question: And the normalised viability (CAL-51 [18]; 150 nM)?
Answer: 102%

Question: What about the normalised viability (CAL-85-1 [19]; 150 nM) of the same compound?
Answer: 93.9%

Question: What about the normalised viability (DU-4475 [20]; 150 nM) of the same compound?
Answer: 92.2%

Question: What about the normalised viability (HDQ-P1 [21]; 150 nM) of the same compound?
Answer: 79.2%

Question: What about the normalised viability (MDA-MB-453 [22]; 150 nM) of the same compound?
Answer: 105%

Question: With `CCCCCCCCc1ccc(CCC(N)(CO)CO)cc1` [Fingolimod] as the compound, how does the “EC50, CellTiter-Glo” value (BT-474 [23]) read?
Answer: 2.87 µM

Question: What about the “EC50, CellTiter-Glo” value (BT-549) of the same compound?
Answer: 4.44 µM

Question: What about the “EC50, CellTiter-Glo” value (CAL-51 [1]) of the same compound?
Answer: 2.04 µM

Question: And the “EC50, CellTiter-Glo” value (CAL-85-1 [24])?
Answer: 3.34 µM

Question: And the “EC50, CellTiter-Glo” value (HCC1937 [25])?
Answer: 3.9 µM

Question: And the “EC50, CellTiter-Glo” value (MCF-10A)?
Answer: 3.35 µM

Question: What about the “EC50, CellTiter-Glo” value (MDA-MB-231 [26]) of the same compound?
Answer: 2.8 µM

Question: And the “EC50, CellTiter-Glo” value (MDA-MB-436 [27])?
Answer: 4.81 µM

Question: And the “EC50, CellTiter-Glo” value (MDA-MB-453 [28])?
Answer: 3.37 µM

Question: What about the “EC50, CellTiter-Glo” value (MDA-MB-468 [29]) of the same compound?
Answer: 3.05 µM

Question: What about the “EC50, CellTiter-Glo” value (SK-BR-3) of the same compound?
Answer: 3.33 µM

Question: And the normalised viability (BT-474 [2]; 10000 nM)?
Answer: 2.28%

Question: What about the normalised viability (CAL-120; 10000 nM) of the same compound?
Answer: 2.23%

Question: And the normalised viability (CAL-51 [3]; 100 nM)?
Answer: 111%

Question: What about the normalised viability (CAL-85-1 [4]; 100 nM) of the same compound?
Answer: 96.6%

Question: And the normalised viability (HCC1599 [5]; 10000 nM)?
Answer: 128%

Question: What about the normalised viability (HCC1937 [6]; 10000 nM) of the same compound?
Answer: 2.06%

Question: And the normalised viability (Hs578T; 10000 nM)?
Answer: 2.92%

Question: What about the normalised viability (MDA-MB-436 [7]; 10000 nM) of the same compound?
Answer: 4.17%

Question: And the normalised viability (MDA-MB-453 [8]; 100 nM)?
Answer: 97.7%

Question: What about the normalised viability (MDA-MB-468 [9]; 10000 nM) of the same compound?
Answer: 0.62%

Question: What about the normalised viability (BT-474 [10]; 100 nM) of the same compound?
Answer: 119%

Question: What about the normalised viability (CAL-51 [11]; 10 nM) of the same compound?
Answer: 117%

Question: What about the normalised viability (DU-4475 [12]; 10 nM) of the same compound?
Answer: 113%

Question: And the normalised viability (HCC1143; 100 nM)?
Answer: 106%

Question: What about the normalised viability (HCC1599 [13]; 100 nM) of the same compound?
Answer: 93.9%

Question: What about the normalised viability (HCC1937 [14]; 100 nM) of the same compound?
Answer: 99%

Question: And the normalised viability (HDQ-P1 [15]; 10 nM)?
Answer: 119%

Question: And the normalised viability (MDA-MB-231 [16]; 100 nM)?
Answer: 89.3%

Question: And the normalised viability (MDA-MB-468 [17]; 100 nM)?
Answer: 101%

Question: What about the normalised viability (CAL-148; 300 nM) of the same compound?
Answer: 93.7%

Question: What about the normalised viability (CAL-51 [18]; 300 nM) of the same compound?
Answer: 113%

Question: What about the normalised viability (CAL-85-1 [19]; 300 nM) of the same compound?
Answer: 93.1%

Question: What about the normalised viability (DU-4475 [20]; 300 nM) of the same compound?
Answer: 99.3%

Question: What about the normalised viability (HDQ-P1 [21]; 300 nM) of the same compound?
Answer: 87.4%

Question: And the normalised viability (MDA-MB-453 [22]; 300 nM)?
Answer: 107%

Question: Which normalised viability (BT-474 [2]; 10000 nM) does the source give for `O=C(O)CCCc1ccc(N(CCCl)CCCl)cc1` [Chlorambucil] here?
Answer: 118%

Question: What about the normalised viability (CAL-120; 10000 nM) of the same compound?
Answer: 91%

Question: And the normalised viability (CAL-51 [3]; 100 nM)?
Answer: 107%

Question: What about the normalised viability (CAL-85-1 [4]; 100 nM) of the same compound?
Answer: 98.6%

Question: And the normalised viability (HCC1599 [5]; 10000 nM)?
Answer: 92.5%

Question: What about the normalised viability (HCC1937 [6]; 10000 nM) of the same compound?
Answer: 52.8%

Question: What about the normalised viability (Hs578T; 10000 nM) of the same compound?
Answer: 87.5%

Question: What about the normalised viability (MDA-MB-436 [7]; 10000 nM) of the same compound?
Answer: 83.3%

Question: What about the normalised viability (MDA-MB-453 [8]; 100 nM) of the same compound?
Answer: 114%

Question: And the normalised viability (MDA-MB-468 [9]; 10000 nM)?
Answer: 81.2%

Question: What about the normalised viability (BT-474 [10]; 100 nM) of the same compound?
Answer: 115%

Question: And the normalised viability (CAL-51 [11]; 10 nM)?
Answer: 107%

Question: What about the normalised viability (DU-4475 [12]; 10 nM) of the same compound?
Answer: 109%

Question: And the normalised viability (HCC1143; 100 nM)?
Answer: 104%

Question: What about the normalised viability (HCC1599 [13]; 100 nM) of the same compound?
Answer: 132%

Question: What about the normalised viability (HCC1937 [14]; 100 nM) of the same compound?
Answer: 87.9%

Question: What about the normalised viability (HDQ-P1 [15]; 10 nM) of the same compound?
Answer: 112%

Question: What about the normalised viability (MDA-MB-231 [16]; 100 nM) of the same compound?
Answer: 103%

Question: And the normalised viability (MDA-MB-468 [17]; 100 nM)?
Answer: 99.8%

Question: What about the normalised viability (CAL-148; 300 nM) of the same compound?
Answer: 110%

Question: What about the normalised viability (CAL-51 [18]; 300 nM) of the same compound?
Answer: 104%

Question: What about the normalised viability (CAL-85-1 [19]; 300 nM) of the same compound?
Answer: 105%

Question: And the normalised viability (DU-4475 [20]; 300 nM)?
Answer: 90.9%

Question: And the normalised viability (HDQ-P1 [21]; 300 nM)?
Answer: 85.8%

Question: What about the normalised viability (MDA-MB-453 [22]; 300 nM) of the same compound?
Answer: 103%
